The source of these data is patent US10214527B2, “Triazolopyridine inhibitors of myeloperoxidase” (priority 2015, dated 2019).

In experiment [1] the target is T1, myeloperoxidase (MPO) (Homo sapiens (Human), UniProt P05164). The experiment is described as follows: MPO peroxidation assay (Amplex Red assay). The format is biochemical.
Experiment [2] deals with T1, myeloperoxidase (MPO). The experiment is described as follows: MPO chlorination assay (APF assay). It is filed as biochemical.
[3] abbreviates: MPO peroxidation, potency range class, read-out: Amplex Red Assay IC50 value.
Setting [4] is: MPO chlorination, potency range class, read-out: APF Assay IC50 value.

T1 sequence (P05164 49-745): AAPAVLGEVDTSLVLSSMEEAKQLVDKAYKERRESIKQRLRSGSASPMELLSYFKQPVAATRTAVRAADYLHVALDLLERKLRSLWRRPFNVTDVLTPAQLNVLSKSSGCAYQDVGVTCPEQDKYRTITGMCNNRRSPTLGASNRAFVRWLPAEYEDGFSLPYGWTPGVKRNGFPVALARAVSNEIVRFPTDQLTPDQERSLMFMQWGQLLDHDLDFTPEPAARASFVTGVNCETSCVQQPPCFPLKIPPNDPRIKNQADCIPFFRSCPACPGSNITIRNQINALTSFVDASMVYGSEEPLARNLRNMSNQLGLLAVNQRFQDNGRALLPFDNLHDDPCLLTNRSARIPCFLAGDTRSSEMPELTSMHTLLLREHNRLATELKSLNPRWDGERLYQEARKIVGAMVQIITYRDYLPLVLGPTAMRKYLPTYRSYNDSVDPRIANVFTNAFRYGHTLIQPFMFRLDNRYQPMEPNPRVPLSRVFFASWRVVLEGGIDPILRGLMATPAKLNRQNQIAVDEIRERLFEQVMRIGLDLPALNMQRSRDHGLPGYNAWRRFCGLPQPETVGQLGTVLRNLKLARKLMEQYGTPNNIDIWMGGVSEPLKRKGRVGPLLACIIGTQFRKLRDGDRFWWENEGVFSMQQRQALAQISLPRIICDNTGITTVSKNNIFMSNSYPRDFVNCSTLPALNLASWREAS

As for `Nc1cc(Cc2cccc(Cl)c2)c2nn[nH]c2n1` [Example 2, 7-(3-chlorobenzyl)-3H-[1,2,3]triazolo [4,5-b]pyridin-5-amine], the IC50 against myeloperoxidase (MPO) [1] is 1 to 100 nM. As to `Cc1ccc(Cc2cc(N)nc3[nH]nnc23)cc1` [Example 3, 7-(4-methylbenzyl)-3H-[1,2,3]triazolo [4,5-b]pyridin-5-amine], on myeloperoxidase (MPO) [1] (setting [3]), the half-maximal inhibitory concentration (IC50) was 101 to 999 nM. The same measure, in the same setting: as for `COc1ccc(Cc2cc(N)nc3[nH]nnc23)cc1` [Example 4, 7-(4-methoxybenzyl)-3H-[1,2,3] triazolo[4,5-b]pyridin-5-amine], the figure is 101 to 999 nM. Consider `Nc1cc(Cc2ccc3ccccc3c2)c2nn[nH]c2n1` [Example 6, 7-(naphthalen-2-ylmethyl)-3H-[1,2,3] triazolo[4,5-b]pyridin-5-amine], for which the IC50 against myeloperoxidase (MPO) [1] is 101 to 999 nM.

As to `COC(=O)c1cccc(Cc2cc(N)nc3[nH]nnc23)c1` [Example 7, Methyl 3-((5-amino-3H-[1,2,3]triazolo[4,5-b]pyridin-7-yl)methyl)benzoate], the half-maximal inhibitory concentration (IC50) at myeloperoxidase (MPO) [1] lay within 1 to 100 nM. Turning to `N#Cc1ccc(F)c(Cc2cc(N)nc3[nH]nnc23)c1` [Example 8, 3-((5-amino-3H-[1,2,3]triazolo [4,5-b]pyridin-7-yl)methyl)-4-fluorobenzo-nitrile], the IC50 on myeloperoxidase (MPO) [1] (setting [3]) lay in the range of 1 to 100 nM.

As to `Cc1cccc(Cc2cc(N)nc3[nH]nnc23)c1F` [Example 9, 7-(2-fluoro-3-methylbenzyl)-3H-[1,2,3]triazolo [4,5-b]pyridin-5-amine], the IC50 at myeloperoxidase (MPO) [1] (setting [3]) is 1 to 100 nM.

Turning to `COC(=O)c1ccc(Cc2cc(N)nc3[nH]nnc23)c(OC)c1` [Example 10, methyl 4-((5-amino-3H-[1,2,3]triazolo[4,5-b]pyridin-7-yl)methyl)-3-methoxybenzo-ate], the IC50 on myeloperoxidase (MPO) [1] (setting [3]) is 101 to 999 nM.

For the molecule `Nc1cc(Cc2ccc(-n3cccn3)cc2)c2nn[nH]c2n1` [Example 11, 7-(4-(1H-pyrazol-1-yl)benzyl)-3H-[1,2,3]triazolo [4,5-b]pyridin-5-amine], the IC50 on myeloperoxidase (MPO) [2] (setting [4]) and on myeloperoxidase (MPO) [1] (setting [3]) was 101 to 999 nM each time. On to `CC(C)(C)OC(=O)N1CCCc2cc(Cc3cc(N)nc4[nH]nnc34)ccc21` [Example 12, tert-butyl 6-((5-amino-3H-[1,2,3]triazolo[4,5-b]pyridin-7-yl)methyl)-3,4-dihydroquinoline-1(2H)-carboxylate], for which, on myeloperoxidase (MPO) [1] (setting [3]), the IC50 fell in the range of 101 to 999 nM.

On to `CS(=O)(=O)c1cccc(Cc2cc(N)nc3[nH]nnc23)c1` [Example 13, 7-(3-(methylsulfon-yl)benzyl)-3H-[1,2,3]triazolo [4,5-b]pyridin-5-amine], for which the IC50 against myeloperoxidase (MPO) [2] and against myeloperoxidase (MPO) [1] was 1000 to 10000 nM in each case. With `Nc1cc(Cc2cccc(-c3cccc(F)c3)c2)c2nn[nH]c2n1` [Example 14, 7-((3′-fluoro-[1,1′-biphenyl]-3-yl)methyl)-3H-[1,2,3]triazolo [4,5-b] pyridin-5-amine], the IC50 at myeloperoxidase (MPO) [2] (setting [4]) is 1 to 100 nM; on myeloperoxidase (MPO) [1] (setting [3]), 101 to 999 nM. Regarding `Cc1ccc(-c2cccc(Cc3cc(N)nc4[nH]nnc34)c2)cc1` [Example 15, 7-((4′-methyl-[1,1′-biphenyl]-3-yl)methyl)-3H-[1,2,3]triazolo [4,5-b] pyridin-5-amine], at myeloperoxidase (MPO) [1] (setting [3]), the IC50 lay in the range of 101 to 999 nM. In the case of `Nc1cc(Cc2cccc(Cc3ccccc3)c2)c2nn[nH]c2n1` [Example 16, 7-(3-benzylbenzyl)-3H-[1,2,3]triazolo [4,5-b]pyridin-5-amine], the IC50 on myeloperoxidase (MPO) [2] (setting [4]) and on myeloperoxidase (MPO) [1] (setting [3]) was 1 to 100 nM each time.

With `Nc1cc(Cc2cccc(-c3ccccc3)c2)c2nn[nH]c2n1` [Example 17, 7-(Biphenyl-3-ylmethyl)-3H-[1,2,3]triazolo[4,5-b]pyridin-5-amine], the IC50 against myeloperoxidase (MPO) [1] was in the range of 1 to 100 nM. In the case of `Nc1cc(Cc2c(F)ccc(Cl)c2F)c2nn[nH]c2n1` [Example 18, 7-(3-chloro-2,6-difluorobenzyl)-3H-[1,2,3]triazolo [4,5-b]pyridin-5-amine], at myeloperoxidase (MPO) [1] (setting [3]), the IC50 lay within 1 to 100 nM. Still for that read-out and setting: as for `Nc1cc(Cc2ccc3cc(F)ccc3c2)c2nn[nH]c2n1` [Example 19, 7-((6-fluoronaphthalen-2-yl)methyl)-3H-[1,2,3]triazolo [4,5-b]pyridin-5-amine], the figure is 101 to 999 nM; as for `Nc1cc(Cc2ccc3c(c2)OCO3)c2nn[nH]c2n1` [Example 20, 7-(benzo[d][1,3]dioxol-5-ylmethyl)-3H-[1,2,3]triazolo [4,5-b]pyridin-5-amine], 101 to 999 nM. With `Nc1cc(Cc2ccc3c(c2)CCC3)c2nn[nH]c2n1` [Example 22, 7-((2,3-dihydro-1H-inden-5-yl)methyl)-3H-[1,2,3]triazolo [4,5-b]pyridin-5-amine], on myeloperoxidase (MPO) [1] (setting [3]), the IC50 lay within 101 to 999 nM.

Consider `Nc1cc(Cc2ccccc2F)c2nn[nH]c2n1` [Example 23, 7-(2-fluorobenzyl)-3H-[1,2,3]triazolo [4,5-b]pyridin-5-amine], for which the IC50 at myeloperoxidase (MPO) [1] fell in the range of 1 to 100 nM. For `Nc1cc(Cc2cccc(F)c2)c2nn[nH]c2n1` [Example 24, 7-(3-fluorobenzyl)-3H-[1,2,3]triazolo [4,5-b]pyridin-5-amine], at myeloperoxidase (MPO) [1] (setting [3]), the 50% inhibitory concentration (IC50) lay in the range of 1 to 100 nM.

Take `Nc1cc(Cc2cccc(C(F)(F)F)c2)c2nn[nH]c2n1` [Example 26, 7-(3-(trifluorometh-yl)benzyl)-3H-[1,2,3]triazolo [4,5-b]pyridin-5-amine]: at myeloperoxidase (MPO) [1], the IC50 is 1000 to 10000 nM. Regarding `Nc1cc(Cc2cccc(Oc3ccc(F)cc3)c2)c2nn[nH]c2n1` [Example 27, 7-(3-(4-fluorophenoxy)benzyl)-3H-[1,2,3]triazolo [4,5-b]pyridin-5-amine], the IC50 on myeloperoxidase (MPO) [1] (setting [3]) fell in the range of 101 to 999 nM.

Take `Cc1nc(-c2ccc(Cc3cc(N)nc4[nH]nnc34)cc2)no1` [Example 32, 7-(4-(5-methyl-1,2,4-oxadiazol-3-yl)benzyl)-3H-[1,2,3]triazolo [4,5-b] pyridin-5-amine]: on myeloperoxidase (MPO) [1] (setting [3]), the IC50 was in the range of 101 to 999 nM.

As to `Nc1cc(Cc2c(F)cccc2F)c2nn[nH]c2n1` [Example 33, 7-(2,6-difluorobenzyl)-3H-[1,2,3] triazolo[4,5-b]pyridin-5-amine], on myeloperoxidase (MPO) [1] (setting [3]), the half-inhibitory concentration (IC50) is 1 to 100 nM. The same measure, in the same setting: as for `CC(C)(C)c1ccc(Cc2cc(N)nc3[nH]nnc23)cc1` [Example 35], the figure is 101 to 999 nM. Turning to `Nc1cc(Cc2ccc(OC(F)(F)F)cc2)c2nn[nH]c2n1` [Example 36, 7-(4-(trifluorometh-oxy)benzyl)-3H-[1,2,3]triazolo [4,5-b]pyridin-5-amine], the IC50 on myeloperoxidase (MPO) [1] (setting [3]) was 1000 to 10000 nM.

With `Nc1cc(Cc2ccccc2CS(=O)(=O)c2ccccc2)c2nn[nH]c2n1` [Example 38, 7-(2-((phenylsulfon-yl)methyl)benzyl)-3H-[1,2,3]triazolo [4,5-b]pyridin-5-amine], the 50% inhibitory concentration (IC50) on myeloperoxidase (MPO) [1] (setting [3]) is 101 to 999 nM. As to `Nc1cc(Cc2ccc(C(=O)c3ccccc3)cc2)c2nn[nH]c2n1` [Example 39, (4-((5-amino-3H-[1,2,3]triazolo [4,5-b]pyridin-7-yl)methyl)phenyl)(phenyl) methanone], the half-maximal inhibitory concentration (IC50) at myeloperoxidase (MPO) [1] (setting [3]) lay within 101 to 999 nM. `Nc1cc(Cc2ccc(-c3csnn3)cc2)c2nn[nH]c2n1` [Example 41, 7-(4-(1,2,3-thiadiazol-4-yl)benzyl)-3H-[1,2,3]triazolo [4,5-b]pyridin-5-amine]: at myeloperoxidase (MPO) [1] (setting [3]), the IC50 was 101 to 999 nM. Same read-out and setting: as for `Nc1cc(Cc2cc(F)ccc2F)c2nn[nH]c2n1` [Example 42, 7-(2,5-difluorobenzyl)-3H-[1,2,3] triazolo[4,5-b]pyridin-5-amine], the figure is 1 to 100 nM; as for `Nc1cc(Cc2cccc(Cl)c2F)c2nn[nH]c2n1` [Example 45, 7-(3-chloro-2-fluorobenzyl)-3H-[1,2,3] triazolo[4,5-b]pyridin-5-amine], 1 to 100 nM; as for `Nc1cc(Cc2cccc(C(=O)NCc3ccccc3)c2)c2nn[nH]c2n1` [Example 46, 3-((5-Amino-3H-[1,2,3]triazolo[4,5-b]pyridin-7-yl)methyl)-N-benzylbenzamide], 101 to 999 nM. Take `Nc1cc(Cc2cccc(OCc3ccccc3)c2)c2nn[nH]c2n1` [Example 49, 7-(3-(Benzyloxy)benzyl)-3H-[1,2,3]triazolo[4,5-b]pyridin-5-amine]: the IC50 at myeloperoxidase (MPO) [1] (setting [3]) fell in the range of 101 to 999 nM. On the same count and under the same terms, as for `Nc1cc(Cc2cccc(-n3cccn3)c2)c2nn[nH]c2n1` [Example 52, 7-(3-(1H-pyrazol-1-yl)benzyl)-3H-[1,2,3]triazolo [4,5-b]pyridin-5-amine], the figure is 101 to 999 nM; as for `Cc1cc(C)n(-c2cccc(Cc3cc(N)nc4[nH]nnc34)c2)n1` [Example 53, 7-(3-(3,5-dimethyl-1H-pyrazol-1-yl)benzyl)-3H-[1,2,3]triazolo [4,5-b] pyridin-5-amine], 101 to 999 nM. Regarding `Cc1cccc(Cc2cc(N)nc3[nH]nnc23)n1` [Example 54, 7-((6-methylpyridin-2-yl)methyl)-3H-[1,2,3]triazolo [4,5-b]pyridin-5-amine], the 50% inhibitory concentration (IC50) on myeloperoxidase (MPO) [1] (setting [3]) lay in the range of 101 to 999 nM.

As to `COc1ccc(-c2cccc(Cc3cc(N)nc4[nH]nnc34)n2)cc1` [Example 55, 7-((6-(4-methoxyphenyl)pyridin-2-yl)methyl)-3H-[1,2,3]triazolo [4,5-b] pyridin-5-amine], the IC50 at myeloperoxidase (MPO) [1] (setting [3]) is 101 to 999 nM. Same read-out and setting: as for `Nc1cc(Cc2cccc3c2ccn3Cc2ccccc2)c2nn[nH]c2n1` [Example 59, 7-((1-Benzyl-1H-indol-4-yl)methyl)-3H-[1,2,3]triazolo[4,5-b]pyridin-5-amine], the figure is 1 to 100 nM; as for `CCn1ccc2c(Cc3cc(N)nc4[nH]nnc34)cccc21` [Example 60, 7-((1-Ethyl-1H-indol-4-yl)methyl)-3H-[1,2,3]triazolo[4,5-b]pyridin-5-amine], 101 to 999 nM. For `Nc1cc(Cc2cccc3c2ccn3Cc2cccc(-c3ccccc3)c2)c2nn[nH]c2n1` [Example 61, 7-((1-([1,1′-Biphenyl]-3-ylmethyl)-1H-indol-4-yl)methyl)-3H-[1,2,3]triazolo[4,5-b]pyridin-5-amine], the 50% inhibitory concentration (IC50) on myeloperoxidase (MPO) [1] (setting [3]) fell in the range of 1 to 100 nM. Still for that read-out and setting: as for `Cn1ncc2ccc(Cc3cc(N)nc4[nH]nnc34)cc21` [Example 67, 7-((1-Methyl-1H-indazol-6-yl)methyl)-3H-[1,2,3]triazolo[4,5-b]pyridin-5-amine], the figure is 101 to 999 nM; as for `Cn1ncc2cc(Cc3cc(N)nc4[nH]nnc34)ccc21` [Example 68, 7-((1-Methyl-1H-indazol-5-yl)methyl)-3H-[1,2,3]triazolo[4,5-b]pyridin-5-amine], 101 to 999 nM.

The term IC50 denotes the midpoint of a concentration-inhibition curve.
